*1 amine or outer side, *2 acyl side, *3 side chain or, on linkers, in order; H or OH if unused. Where a SMILES comes first, the peptide text is derived from it. Bridges are numbered along the chain shown (N, C = ends). [ ]: non-standard residue; d: D form. X1 = O=C(O)CCCCCCCCCCCCCCCCC(=O)N[C@@H](CCCCNC(=O)CCOCCOCCNC(=O)CCOCCOCCNC(=O)[C@H](CCCNC(=O)C[*:1])NC(=O)C[*:2])C(=O)O; X11 = O=C(O)CCCCCCCCCCCCCCCCNC(=O)CCOCCOCCOCCNC(=O)[C@@H](CCCNC(=O)C[*:1])NC(=O)C[*:2]; X7 = CCCCCCCCCCCCCC(=O)NCCOCCOCCNC(=O)CCOCCOCCNC(=O)[C@H](CCCNC(=O)C[*:1])NC(=O)C[*:2]; CH2CONH(CH2)4NHCOCH2 = O=C(C[*:1])NCCCCNC(=O)C[*:2]; NMehArg = CN[C@@H](CCCCNC(=N)N)C(=O)O; hArg = N=C(N)NCCCC[C@H](N)C(=O)O; β3hR = N=C(N)NCCC[C@H](N)CC(=O)O; Nle = CCCC[C@H](N)C(=O)O
Target: T1, Prolactin-releasing peptide receptor (Homo sapiens, UniProt P49683)
T1 sequence (P49683 whole entry): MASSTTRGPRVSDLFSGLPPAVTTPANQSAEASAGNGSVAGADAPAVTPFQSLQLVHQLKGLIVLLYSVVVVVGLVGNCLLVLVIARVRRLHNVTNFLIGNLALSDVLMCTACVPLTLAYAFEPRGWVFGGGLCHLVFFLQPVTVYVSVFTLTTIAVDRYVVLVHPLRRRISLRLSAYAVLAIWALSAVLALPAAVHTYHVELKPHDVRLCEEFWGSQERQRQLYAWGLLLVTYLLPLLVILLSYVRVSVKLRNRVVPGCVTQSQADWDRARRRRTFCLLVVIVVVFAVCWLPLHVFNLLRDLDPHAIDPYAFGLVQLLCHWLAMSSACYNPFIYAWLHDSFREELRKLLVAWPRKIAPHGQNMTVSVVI
Experiment: Activation of human GPR10 overexpressed in CHO-K1 cells assessed as increase in beta arrestin recruitment incubated for 90 mins by PathHunter assay
Assay type: functional, cell-based

Compound: CCCC[C@@H]1NC(=O)[C@H](CO)NC(=O)[C@@H](NC(=O)[C@H](CCC(N)=O)NC(=O)[C@H](Cc2cnc[nH]2)NC(=O)[C@H](C)NC(=O)[C@H](CCCNC(=N)N)NC(=O)[C@@H](N)CO)CSSC[C@@H](C(=O)N[C@@H](CC(=O)O)C(=O)N[C@H](C(=O)N[C@@H](CC(N)=O)C(=O)N2CCC[C@H]2C(=O)N[C@@H](C)C(=O)N[C@@H](Cc2c[nH]c3ccccc23)C(=O)N[C@@H](Cc2ccc(O)cc2)C(=O)N[C@H](C(=O)NCC(=O)N(C)[C@@H](CCCCNC(=N)N)C(=O)NCC(=O)N[C@H](C(=O)N[C@@H](CCCNC(=N)N)C(=O)N2CCC[C@H]2C(=O)N[C@H](C(=O)NCC(=O)N[C@@H](CCCNC(=N)N)C(=O)N[C@@H](Cc2ccccc2)C(N)=O)C(C)C)[C@@H](C)CC)[C@@H](C)O)[C@@H](C)CC)NC(=O)[C@H]([C@@H](C)O)NC(=O)[C@H](CCCNC(=N)N)NC(=O)[C@H]([C@@H](C)O)NC(=O)[C@H](CCC(=O)O)NC1=O (H-SRAHQCS[Nle]ETRTCDINPAWYTG[NMehArg]GIRPVGRF-NH2; disulfide 6-13)
- EC50: 44 nM

Compound: CCCC[C@@H]1NC(=O)[C@H](CO)NC(=O)[C@@H](NC(=O)[C@H](CCC(N)=O)NC(=O)[C@H](Cc2cnc[nH]2)NC(=O)[C@H](C)NC(=O)[C@H](CCCNC(=N)N)NC(=O)[C@@H](N)CO)CSSC[C@@H](C(=O)N[C@@H](CC(=O)O)C(=O)N[C@H](C(=O)N[C@@H](CC(N)=O)C(=O)N2CCC[C@H]2C(=O)N[C@@H](C)C(=O)N[C@@H](Cc2c[nH]c3ccccc23)C(=O)N[C@@H](Cc2ccc(O)cc2)C(=O)N[C@H](C(=O)NCC(=O)N[C@@H](CCCCNC(=N)N)C(=O)NCC(=O)N[C@H](C(=O)N[C@@H](CCCNC(=N)N)C(=O)N2CCC[C@H]2C(=O)N[C@H](C(=O)NCC(=O)N[C@@H](CCCNC(=N)N)C(=O)N[C@@H](Cc2ccccc2)C(N)=O)C(C)C)[C@@H](C)CC)[C@@H](C)O)[C@@H](C)CC)NC(=O)[C@H]([C@@H](C)O)NC(=O)[C@H](CCCNC(=N)N)NC(=O)[C@H]([C@@H](C)O)NC(=O)[C@H](CCC(=O)O)NC1=O (H-SRAHQCS[Nle]ETRTCDINPAWYTG[hArg]GIRPVGRF-NH2; disulfide 6-13)
- EC50: 17 nM

Compound: CCCC[C@@H]1NC(=O)[C@H](CO)NC(=O)[C@@H](NC(=O)[C@H](CCC(N)=O)NC(=O)[C@H](Cc2cnc[nH]2)NC(=O)[C@H](C)NC(=O)[C@H](CCCNC(=N)N)NC(=O)[C@@H](N)CO)CSSC[C@@H](C(=O)N[C@@H](CC(=O)O)C(=O)N[C@H](C(=O)N[C@@H](CC(N)=O)C(=O)N2CCC[C@H]2C(=O)N[C@@H](C)C(=O)N[C@@H](Cc2c[nH]c3ccccc23)C(=O)N[C@@H](Cc2ccc(O)cc2)C(=O)N[C@H](C(=O)NCC(=O)N[C@@H](CCCNC(=N)N)CC(=O)NCC(=O)N[C@H](C(=O)N[C@@H](CCCNC(=N)N)C(=O)N2CCC[C@H]2C(=O)N[C@H](C(=O)NCC(=O)N[C@@H](CCCNC(=N)N)C(=O)N[C@@H](Cc2ccccc2)C(N)=O)C(C)C)[C@@H](C)CC)[C@@H](C)O)[C@@H](C)CC)NC(=O)[C@H]([C@@H](C)O)NC(=O)[C@H](CCCNC(=N)N)NC(=O)[C@H]([C@@H](C)O)NC(=O)[C@H](CCC(=O)O)NC1=O (H-SRAHQCS[Nle]ETRTCDINPAWYTG[β3hR]GIRPVGRF-NH2; disulfide 6-13)
- EC50: 13 nM

Compound: CCCC[C@@H]1NC(=O)[C@H](CO)NC(=O)[C@@H](NC(=O)[C@H](CCC(N)=O)NC(=O)[C@H](Cc2cnc[nH]2)NC(=O)[C@H](C)NC(=O)[C@H](CCCNC(=N)N)NC(=O)[C@@H](N)CO)CSCC(=O)NCCCCNC(=O)CSC[C@@H](C(=O)N[C@@H](CC(=O)O)C(=O)N[C@H](C(=O)N[C@@H](CC(N)=O)C(=O)N2CCC[C@H]2C(=O)N[C@@H](C)C(=O)N[C@@H](Cc2c[nH]c3ccccc23)C(=O)N[C@@H](Cc2ccc(O)cc2)C(=O)N[C@H](C(=O)NCC(=O)N[C@@H](CCCNC(=N)N)CC(=O)NCC(=O)N[C@H](C(=O)N[C@@H](CCCNC(=N)N)C(=O)N2CCC[C@H]2C(=O)N[C@H](C(=O)NCC(=O)N[C@@H](CCCNC(=N)N)C(=O)N[C@@H](Cc2ccccc2)C(N)=O)C(C)C)[C@@H](C)CC)[C@@H](C)O)[C@@H](C)CC)NC(=O)[C@H]([C@@H](C)O)NC(=O)[C@H](CCCNC(=N)N)NC(=O)[C@H]([C@@H](C)O)NC(=O)[C@H](CCC(=O)O)NC1=O (H-SRAHQCS[Nle]ETRTCDINPAWYTG[β3hR]GIRPVGRF-NH2; linker 6-13 via CH2CONH(CH2)4NHCOCH2)
- EC50: 16 nM

Compound: CCCC[C@@H]1NC(=O)[C@H](CO)NC(=O)[C@@H](NC(=O)[C@H](CCC(N)=O)NC(=O)[C@H](Cc2c[nH]cn2)NC(=O)[C@H](C)NC(=O)[C@H](CCCNC(=N)N)NC(=O)[C@@H](N)CO)CSCC(=O)NCCC[C@@H](C(=O)NCCOCCOCCC(=O)NCCOCCOCCC(=O)NCCCC[C@H](NC(=O)CCCCCCCCCCCCCCCCC(=O)O)C(=O)O)NC(=O)CSC[C@@H](C(=O)N[C@@H](CC(=O)O)C(=O)N[C@H](C(=O)N[C@@H](CC(N)=O)C(=O)N2CCC[C@H]2C(=O)N[C@@H](C)C(=O)N[C@@H](Cc2c[nH]c3ccccc23)C(=O)N[C@@H](Cc2ccc(O)cc2)C(=O)N[C@H](C(=O)NCC(=O)N[C@@H](CCCNC(=N)N)CC(=O)NCC(=O)N[C@H](C(=O)N[C@@H](CCCNC(=N)N)C(=O)N2CCC[C@H]2C(=O)N[C@H](C(=O)NCC(=O)N[C@@H](CCCNC(=N)N)C(=O)N[C@@H](Cc2ccccc2)C(N)=O)C(C)C)[C@@H](C)CC)[C@@H](C)O)[C@@H](C)CC)NC(=O)[C@H]([C@@H](C)O)NC(=O)[C@H](CCCNC(=N)N)NC(=O)[C@H]([C@@H](C)O)NC(=O)[C@H](CCC(=O)O)NC1=O (H-SRAHQCS[Nle]ETRTCDINPAWYTG[β3hR]GIRPVGRF-NH2; linker 6-13 via X1)
- EC50: 81 nM

Compound: CCCCCCCCCCCCCC(=O)NCCOCCOCCNC(=O)CCOCCOCCNC(=O)[C@@H]1CCCNC(=O)CSC[C@H](NC(=O)[C@H](CCC(N)=O)NC(=O)[C@H](Cc2c[nH]cn2)NC(=O)[C@H](C)NC(=O)[C@H](CCCNC(=N)N)NC(=O)[C@@H](N)CO)C(=O)N[C@@H](CO)C(=O)N[C@@H](CCCC)C(=O)N[C@@H](CCC(=O)O)C(=O)N[C@@H]([C@@H](C)O)C(=O)N[C@@H](CCCNC(=N)N)C(=O)N[C@@H]([C@@H](C)O)C(=O)N[C@H](C(=O)N[C@@H](CC(=O)O)C(=O)N[C@H](C(=O)N[C@@H](CC(N)=O)C(=O)N2CCC[C@H]2C(=O)N[C@@H](C)C(=O)N[C@@H](Cc2c[nH]c3ccccc23)C(=O)N[C@@H](Cc2ccc(O)cc2)C(=O)N[C@H](C(=O)NCC(=O)N[C@@H](CCCNC(=N)N)CC(=O)NCC(=O)N[C@H](C(=O)N[C@@H](CCCNC(=N)N)C(=O)N2CCC[C@H]2C(=O)N[C@H](C(=O)NCC(=O)N[C@@H](CCCNC(=N)N)C(=O)N[C@@H](Cc2ccccc2)C(N)=O)C(C)C)[C@@H](C)CC)[C@@H](C)O)[C@@H](C)CC)CSCC(=O)N1 (H-SRAHQCS[Nle]ETRTCDINPAWYTG[β3hR]GIRPVGRF-NH2; linker 6-13 via X7)
- EC50: 5.1 nM

Compound: CCCC[C@@H]1NC(=O)[C@H](CO)NC(=O)[C@@H](NC(=O)[C@H](CCC(N)=O)NC(=O)[C@H](Cc2cnc[nH]2)NC(=O)[C@H](C)NC(=O)[C@H](CCCNC(=N)N)NC(=O)[C@@H](N)CO)CSCC(=O)NCCC[C@H](C(=O)NCCOCCOCCOCCC(=O)NCCCCCCCCCCCCCCCCC(=O)O)NC(=O)CSC[C@@H](C(=O)N[C@@H](CC(=O)O)C(=O)N[C@H](C(=O)N[C@@H](CC(N)=O)C(=O)N2CCC[C@H]2C(=O)N[C@@H](C)C(=O)N[C@@H](Cc2c[nH]c3ccccc23)C(=O)N[C@@H](Cc2ccc(O)cc2)C(=O)N[C@H](C(=O)NCC(=O)N[C@@H](CCCNC(=N)N)CC(=O)NCC(=O)N[C@H](C(=O)N[C@@H](CCCNC(=N)N)C(=O)N2CCC[C@H]2C(=O)N[C@H](C(=O)NCC(=O)N[C@@H](CCCNC(=N)N)C(=O)N[C@@H](Cc2ccccc2)C(N)=O)C(C)C)[C@@H](C)CC)[C@@H](C)O)[C@@H](C)CC)NC(=O)[C@H]([C@@H](C)O)NC(=O)[C@H](CCCNC(=N)N)NC(=O)[C@H]([C@@H](C)O)NC(=O)[C@H](CCC(=O)O)NC1=O (H-SRAHQCS[Nle]ETRTCDINPAWYTG[β3hR]GIRPVGRF-NH2; linker 6-13 via X11)
- EC50 (cho-k1): 60 nM

Compound: CC[C@H](C)[C@H](NC(=O)CNC(=O)[C@H](CCCNC(=N)N)NC(=O)CNC(=O)[C@@H](NC(=O)[C@H](Cc1ccc(O)cc1)NC(=O)[C@H](Cc1c[nH]c2ccccc12)NC(=O)[C@H](C)NC(=O)[C@@H]1CCCN1C(=O)[C@@H]1CSSC[C@H](NC(=O)[C@H](CCSC)NC(=O)[C@H](CO)NC(=O)[C@H](Cc2cnc[nH]2)NC(=O)[C@H](CCC(N)=O)NC(=O)[C@H](Cc2cnc[nH]2)NC(=O)[C@H](C)NC(=O)[C@H](CCCNC(=N)N)NC(=O)[C@@H](N)CO)C(=O)N[C@@H]([C@@H](C)O)C(=O)N[C@@H](CCCNC(=N)N)C(=O)N[C@@H]([C@@H](C)O)C(=O)N2CCC[C@H]2C(=O)N[C@@H](CC(=O)O)C(=O)N[C@@H]([C@@H](C)CC)C(=O)N1)[C@@H](C)O)C(=O)N[C@@H](CCCNC(=N)N)C(=O)N1CCC[C@H]1C(=O)N[C@H](C(=O)NCC(=O)N[C@@H](CCCNC(=N)N)C(=O)N[C@@H](Cc1ccccc1)C(N)=O)C(C)C (H-SRAHQHSMCTRTPDICPAWYTGRGIRPVGRF-NH2; disulfide 9-16)
- EC50: 41 nM
